Data reported in PMC9287416, “Externalized phosphatidylinositides on apoptotic cells are eat-me signals recognized by CD14” (Cell Death and Differentiation, 2022).
Like-named read-outs stand apart in the source and are kept apart here.

Target: T1, CD14 (Homo sapiens, UniProt P08571)
T1 construct: full-length human CD14 expressed in HEK293T cells, recombinant; His-tagged protein used in flow cytometry
T1 sequence (P08571 20-345): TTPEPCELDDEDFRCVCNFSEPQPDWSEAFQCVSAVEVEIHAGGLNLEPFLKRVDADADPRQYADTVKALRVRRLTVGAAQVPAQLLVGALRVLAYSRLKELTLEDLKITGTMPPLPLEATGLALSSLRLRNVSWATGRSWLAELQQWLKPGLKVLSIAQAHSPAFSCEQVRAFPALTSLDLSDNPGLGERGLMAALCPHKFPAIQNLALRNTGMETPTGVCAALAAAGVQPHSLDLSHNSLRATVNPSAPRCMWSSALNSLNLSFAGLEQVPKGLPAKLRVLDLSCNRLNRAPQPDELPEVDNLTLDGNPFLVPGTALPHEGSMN
Assay: isothermal titration calorimetry
Assay type: binding

| Compound | Kd (PI(3,4,5)P3 in liposomes) | Kd |
| --- | --- | --- |
| PI(3,4,5)P3 | 5.6 ± 0.6 µM |  |
| O=P(O)(O)O[C@H]1[C@H](OP(=O)(O)O)[C@@H](OP(=O)(O)O)[C@H](OP(=O)(O)O)[C@@H](OP(=O)(O)O)[C@H]1OP(=O)(O)O [IP6] |  | 6.2 ± 1.2 µM |
